Biological target: Hepatocyte growth factor receptor (Homo sapiens, UniProt P08581)
Assay: Met Kinase Inhibition Assay
Conditions: pH 7.5; 30 °C

Hepatocyte growth factor receptor, sequence (P08581 whole entry): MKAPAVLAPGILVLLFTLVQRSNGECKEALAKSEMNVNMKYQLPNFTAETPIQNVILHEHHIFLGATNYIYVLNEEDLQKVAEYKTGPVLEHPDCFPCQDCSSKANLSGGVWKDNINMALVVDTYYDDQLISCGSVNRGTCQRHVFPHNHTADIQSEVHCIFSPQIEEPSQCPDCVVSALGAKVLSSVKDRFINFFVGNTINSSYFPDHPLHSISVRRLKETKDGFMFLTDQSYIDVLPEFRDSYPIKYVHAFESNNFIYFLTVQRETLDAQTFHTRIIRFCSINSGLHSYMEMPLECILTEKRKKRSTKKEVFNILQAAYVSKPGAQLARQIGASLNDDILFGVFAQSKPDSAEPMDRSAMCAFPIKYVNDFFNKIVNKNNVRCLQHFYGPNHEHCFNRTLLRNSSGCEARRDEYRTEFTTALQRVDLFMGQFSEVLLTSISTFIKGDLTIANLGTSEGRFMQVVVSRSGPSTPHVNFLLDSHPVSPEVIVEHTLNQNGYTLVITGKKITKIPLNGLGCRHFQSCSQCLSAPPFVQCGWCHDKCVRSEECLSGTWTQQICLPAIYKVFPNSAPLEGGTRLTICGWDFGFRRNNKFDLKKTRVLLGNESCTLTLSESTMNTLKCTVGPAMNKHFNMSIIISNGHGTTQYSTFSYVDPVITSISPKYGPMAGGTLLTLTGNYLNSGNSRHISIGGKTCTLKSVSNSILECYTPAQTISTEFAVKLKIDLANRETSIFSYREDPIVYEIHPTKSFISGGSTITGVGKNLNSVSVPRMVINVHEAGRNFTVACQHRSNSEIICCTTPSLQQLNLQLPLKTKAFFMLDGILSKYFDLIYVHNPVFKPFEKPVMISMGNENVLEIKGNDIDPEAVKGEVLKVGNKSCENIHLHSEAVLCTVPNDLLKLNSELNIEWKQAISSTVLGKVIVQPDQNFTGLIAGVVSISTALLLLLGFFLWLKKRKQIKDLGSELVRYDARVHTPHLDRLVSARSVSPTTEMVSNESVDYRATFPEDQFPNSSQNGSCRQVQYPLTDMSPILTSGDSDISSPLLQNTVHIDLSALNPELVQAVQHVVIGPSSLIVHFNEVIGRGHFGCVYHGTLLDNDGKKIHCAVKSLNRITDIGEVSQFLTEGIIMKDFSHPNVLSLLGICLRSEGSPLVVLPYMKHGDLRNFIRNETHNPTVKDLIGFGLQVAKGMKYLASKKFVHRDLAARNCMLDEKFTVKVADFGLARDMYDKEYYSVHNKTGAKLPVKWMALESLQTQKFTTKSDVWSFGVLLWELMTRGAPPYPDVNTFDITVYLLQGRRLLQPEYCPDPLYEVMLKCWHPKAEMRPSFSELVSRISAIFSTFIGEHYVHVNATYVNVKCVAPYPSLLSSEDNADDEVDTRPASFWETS

| IC50 [nM] | SMILES |
| --- | --- |
| 2.3 | COc1ccc(-n2cc(C(=O)Nc3ccc(Oc4ccnc5[nH]ccc45)c(F)c3)c(=O)c(-c3ccc(F)cc3)c2)cc1F [1-(3-fluoro-4-methoxyphenyl)-N-(3-fluoro-4-{1H-pyrrolo[2,3-b]pyridin-4-yloxy}phenyl)-5-(4-fluorophenyl)-4-oxo-1,4-dihydropyridine-3-carboxamide] |
| 5 | O=C(Nc1ccc(Oc2ccnc3[nH]ccc23)c(F)c1)c1cn(-c2ccc(Cl)c(F)c2)cc(-c2ccc(F)cc2)c1=O [1-(4-chloro-3-fluorophenyl)-N-(3-fluoro-4-{1H-pyrrolo[2,3-b]pyridin-4-yloxy}phenyl)-5-(4-fluorophenyl)-4-oxo-1,4-dihydropyridine-3-carboxamide] |

From BindingDB's records for doi:10.1021/jm800476q (Bristol Myers Squibb, 2008)
